In one assay the target is c-kit mutant D816V (Homo sapiens (Human), UniProt P10721, D816V/DEL694-753). As to the kind of experiment: c-Kit mutant D816V biochemical assay (AlphaScreen kinase activity). Summed up: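 Recombinant His-tagged c-Kit D816V kinase domain (residues 551-934, insert 694-753 deleted, E. coli-expressed) phosphorylating 30 nM biotin-(E4Y)10 with 10 μM ATP, HEPES pH 7.2, Mg/Mn, 5% DMSO; 30 min, room temperature. Phosphorylation detected by AlphaScreen (streptavidin donor/PY30 acceptor beads); IC50 from 8-point 1:3 series.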
Background: In Alpha technology, singlet oxygen from a donor bead excites a nearby acceptor bead.

Assay [1] relates to BaF3-FL KIT D816V or BaF3-FL KIT V560G/D816V cell line. The assay can be described thus: Cell-based assays of c-Kit mutant kinase activity (cell proliferation, ATPlite). Conditions: at least one of the c-kit cell assays of Example 7. Put shortly: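 BaF3 cells dependent on transfected full-length human KIT D816V or V560G/D816V (pCI-Neo, CMV promoter) were seeded at 1×10^4 cells/well and exposed to 8-point 1:3 dilutions from 10 μM top (0.2% DMSO) for three days at 37° C. ATPlite luminescence gave cell number; IC50 from concentration-response.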
(In general: Cellular ATP, detected with luciferase, serves as a proxy for viable cell number.)

Molecules are shown by their SMILES. A value given as a limit tells only on which side of the number the result lay.

c-kit mutant D816V, sequence (P10721 other isoform, or with tags, fused parts or gaps D816V/del 694-753): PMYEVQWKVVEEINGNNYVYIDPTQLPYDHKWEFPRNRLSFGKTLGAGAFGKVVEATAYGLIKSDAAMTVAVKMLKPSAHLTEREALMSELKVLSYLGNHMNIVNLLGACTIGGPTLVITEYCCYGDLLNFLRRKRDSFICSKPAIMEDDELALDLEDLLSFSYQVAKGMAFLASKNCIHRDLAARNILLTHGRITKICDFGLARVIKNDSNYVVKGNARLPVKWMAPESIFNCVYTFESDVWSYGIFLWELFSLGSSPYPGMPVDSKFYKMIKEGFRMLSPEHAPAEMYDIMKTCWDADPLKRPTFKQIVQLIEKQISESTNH

Take `CCC1(c2nc(C)c(-c3ccc(OC)c(C)c3)[nH]2)CCN(c2ncnc3[nH]c(C)cc23)CC1` [P-3141, 4-[4-ethyl-4-[5-(4-methoxy-3-methyl-phenyl)-4-methyl-1H-imidazol-2-yl]-1-piperidyl]-6-methyl-7H-pyrrolo[2,3-d]pyrimidine]: the IC50 (as a rule, the concentration needed to halve the response being measured) against c-kit mutant D816V is 0.0001 to 1 µM; in assay [1] it was less than 10 µM.

With `CCOc1ccc(-c2[nH]c(C3(CC)CCN(c4ncnc5[nH]c(C)cc45)CC3)nc2C)cc1C` [P-3142, 4-[4-[5-(4-ethoxy-3-methyl-phenyl)-4-methyl-1H-imidazol-2-yl]-4-ethyl-1-piperidyl]-6-methyl-7H-pyrrolo[2,3-d]pyrimidine], the IC50 against c-kit mutant D816V was 0.0001 to 1 µM; in assay [1] it was less than 10 µM.

Consider `CCC1(c2nc(C)c(-c3ccc4c(c3)OCO4)[nH]2)CCN(c2ncnc3[nH]c(C)cc23)CC1` [P-3143, 4-[4-[5-(1,3-benzodioxol-5-yl)-4-methyl-1H-imidazol-2-yl]-4-ethyl-1-piperidyl]-6-methyl-7H-pyrrolo[2,3-d]pyrimidine], for which the IC50 was 0.0001 to 1 µM against c-kit mutant D816V and less than 10 µM in assay [1].

`CCC1(c2nc(C)c(-c3ccc4c(c3)OCCO4)[nH]2)CCN(c2ncnc3[nH]c(C)cc23)CC1` [P-3144, 4-[4-[5-(2,3-dihydro-1,4-benzodioxin-6-yl)-4-methyl-1H-imidazol-2-yl]-4-ethyl-1-piperidyl]-6-methyl-7H-pyrrolo[2,3-d]pyrimidine]: the values for the IC50 (against c-kit mutant D816V; in assay [1]) were 0.0001 to 1 µM and less than 10 µM, respectively.

For `CCOc1ccc(-c2[nH]c(C3(CC)CCN(c4ncnc5[nH]c(C)cc45)CC3)nc2C)cc1` [P-3145, 4-[4-[5-(4-ethoxyphenyl)-4-methyl-1H-imidazol-2-yl]-4-ethyl-1-piperidyl]-6-methyl-7H-pyrrolo[2,3-d]pyrimidine], the values for the 50% inhibitory concentration (IC50) (at c-kit mutant D816V; in assay [1]) were 0.0001 to 1 µM and less than 10 µM, respectively.

As to `COc1ccc(-c2[nH]c(C3CCN(c4ncnc5[nH]c(-c6ccnc(OC)c6)cc45)CC3)nc2C(F)(F)F)cc1` [P-3146, 4-[4-[5-(4-methoxyphenyl)-4-(trifluoromethyl)-1H-imidazol-2-yl]-1-piperidyl]-6-(2-methoxy-4-pyridyl)-7H-pyrrolo[2,3-d]pyrimidine], the IC50 against c-kit mutant D816V was 0.0001 to 1 µM; in assay [1], less than 10 µM.

As to `COc1ccc(-c2[nH]c(C3CCN(c4ncnc5[nH]c(-c6ccc(C#N)cc6)cc45)CC3)nc2C(F)(F)F)cc1` [P-3148, 4-[4-[4-[5-(4-methoxyphenyl)-4-(trifluoromethyl)-1H-imidazol-2-yl]-1-piperidyl]-7H-pyrrolo[2,3-d]pyrimidin-6-yl]benzonitrile], the values for the IC50 (against c-kit mutant D816V; in assay [1]) were 0.0001 to 1 µM and less than 10 µM, respectively.

On to `COc1cc(-c2cc3c(N4CCC(c5nc(C)c(-c6ccc(C(F)(F)F)cc6)[nH]5)CC4)ncnc3[nH]2)ccn1` [P-3149, 6-(2-methoxy-4-pyridyl)-4-[4-[4-methyl-5-[4-(trifluoromethyl)phenyl]-1H-imidazol-2-yl]-1-piperidyl]-7H-pyrrolo[2,3-d]pyrimidine], for which the IC50 against c-kit mutant D816V is 0.0001 to 1 µM; in assay [1], less than 10 µM.

Consider `Cc1cc2c(N3CCC(C)(c4nc(C)c(-c5ccc6c(c5)OCO6)[nH]4)CC3)ncnc2[nH]1` [P-3150, 4-[4-[5-(1,3-benzodioxol-5-yl)-4-methyl-1H-imidazol-2-yl]-4-methyl-1-piperidyl]-6-methyl-7H-pyrrolo[2,3-d]pyrimidine], for which the IC50 was 0.0001 to 1 µM at c-kit mutant D816V and less than 10 µM in assay [1].

Regarding `Cc1cc2c(N3CCC(C)(c4nc(C)c(-c5ccc6c(c5)OCCO6)[nH]4)CC3)ncnc2[nH]1` [P-3151, 4-[4-[5-(2,3-dihydro-1,4-benzodioxin-6-yl)-4-methyl-1H-imidazol-2-yl]-4-methyl-1-piperidyl]-6-methyl-7H-pyrrolo[2,3-d]pyrimidine], the IC50 was 0.0001 to 1 µM against c-kit mutant D816V and less than 10 µM in assay [1].

Take `Cc1cc2c(N3CCC(C)(c4nc(C)c(-c5ccc6c(c5)OC(F)(F)O6)[nH]4)CC3)ncnc2[nH]1` [P-3152, 4-[4-[5-(2,2-difluoro-1,3-benzodioxol-5-yl)-4-methyl-1H-imidazol-2-yl]-4-methyl-1-piperidyl]-6-methyl-7H-pyrrolo[2,3-d]pyrimidine]: the IC50 at c-kit mutant D816V was 0.0001 to 1 µM; in assay [1], less than 10 µM.

`COc1ccc(-c2[nH]c(C3(C)CCN(c4ncnc5[nH]c(-c6cnn(C(F)F)c6)cc45)CC3)nc2C)cc1` [P-3153, 6-[1-(difluoromethyl)pyrazol-4-yl]-4-[4-[5-(4-methoxyphenyl)-4-methyl-1H-imidazol-2-yl]-4-methyl-1-piperidyl]-7H-pyrrolo[2,3-d]pyrimidine]: the IC50 against c-kit mutant D816V was 0.0001 to 1 µM; in assay [1], less than 10 µM.

On to `COc1ccc(-c2[nH]c(C3(C)CCN(c4ncnc5[nH]c(-c6cnn(C(F)F)c6)cc45)CC3)nc2C)cc1C` [P-3154, 6-[1-(difluoromethyl)pyrazol-4-yl]-4-[4-[5-(4-methoxy-3-methyl-phenyl)-4-methyl-1H-imidazol-2-yl]-4-methyl-1-piperidyl]-7H-pyrrolo[2,3-d]pyrimidine], for which the IC50 on c-kit mutant D816V was 0.0001 to 1 µM; in assay [1] it was less than 10 µM.

Regarding `Cc1nc(C2(C)CCN(c3ncnc4[nH]c(-c5cnn(C(F)F)c5)cc34)CC2)[nH]c1-c1ccc2c(c1)OCO2` [P-3155, 4-[4-[5-(1,3-benzodioxol-5-yl)-4-methyl-1H-imidazol-2-yl]-4-methyl-1-piperidyl]-6-[1-(difluoromethyl)pyrazol-4-yl]-7H-pyrrolo[2,3-d]pyrimidine], the IC50 is 0.0001 to 1 µM at c-kit mutant D816V and less than 10 µM in assay [1].

Turning to `COc1ccc(-c2[nH]c(C3(C)CCN(c4ncnc5[nH]c(-c6ccc(OC)nc6)cc45)CC3)nc2C)cc1` [P-3156, 4-[4-[5-(4-methoxyphenyl)-4-methyl-1H-imidazol-2-yl]-4-methyl-1-piperidyl]-6-(6-methoxy-3-pyridyl)-7H-pyrrolo[2,3-d]pyrimidine], the concentration for half-maximal inhibition (IC50) against c-kit mutant D816V was 0.0001 to 1 µM; in assay [1], less than 10 µM.

On to `COc1ccc(-c2cc3c(N4CCC(C)(c5nc(C)c(-c6ccc(OC)c(C)c6)[nH]5)CC4)ncnc3[nH]2)cn1` [P-3157, 4-[4-[5-(4-methoxy-3-methyl-phenyl)-4-methyl-1H-imidazol-2-yl]-4-methyl-1-piperidyl]-6-(6-methoxy-3-pyridyl)-7H-pyrrolo[2,3-d]pyrimidine], for which the half-inhibitory concentration (IC50) against c-kit mutant D816V was 0.0001 to 1 µM; in assay [1], less than 10 µM.

`COc1ccc(-c2cc3c(N4CCC(C)(c5nc(C)c(-c6ccc7c(c6)OCO7)[nH]5)CC4)ncnc3[nH]2)cn1` [P-3158, 4-[4-[5-(1,3-benzodioxol-5-yl)-4-methyl-1H-imidazol-2-yl]-4-methyl-1-piperidyl]-6-(6-methoxy-3-pyridyl)-7H-pyrrolo[2,3-d]pyrimidine]: the values for the IC50 (on c-kit mutant D816V; in assay [1]) were 0.0001 to 1 µM and less than 10 µM, respectively.

In the case of `Cc1nc(C2(C)CCN(c3ncnc4[nH]c(-c5ccc(C#N)cc5)cc34)CC2)[nH]c1-c1ccc2c(c1)OCO2` [P-3159, 4-[4-[4-[5-(1,3-benzodioxol-5-yl)-4-methyl-1H-imidazol-2-yl]-4-methyl-1-piperidyl]-7H-pyrrolo[2,3-d]pyrimidin-6-yl]benzonitrile], the IC50 at c-kit mutant D816V was 0.0001 to 1 µM; in assay [1] it was less than 10 µM.

On to `CCOc1ccc(-c2[nH]c(C3(C)CCN(c4ncnc5[nH]c(-c6ccc(C#N)cc6)cc45)CC3)nc2C)cc1C` [P-3160, 4-[4-[4-[5-(4-ethoxy-3-methyl-phenyl)-4-methyl-1H-imidazol-2-yl]-4-methyl-1-piperidyl]-7H-pyrrolo[2,3-d]pyrimidin-6-yl]benzonitrile], for which the values for the IC50 (at c-kit mutant D816V; in assay [1]) were 0.0001 to 1 µM and less than 10 µM, respectively.

The record behind these values is patent publication US9771369B2, “Compounds and methods for kinase modulation, and indications therefor” (Plexxikon Inc., priority 2014, dated 2017).
